Test results: patent publication US20130004966A1, “STRUCTURE OF CYTOKININS AND CYTOKININ RECEPTORS, AND MODULATION OF CYTOKININ SIGNALING” (Salk Institute for Biological Studies (027731), priority 2011, published 2013)

Assays:
[1] = target: T1, AHK4 (Arabidopsis thaliana, UniProt Q9C5U0); conditions: literature result, Romanov et al., J. Exp. Bot. 57:4051-4058 (2006); cited from earlier work
T1 construct: host or cells: E. coli

[2] = Crystallization of purified AHK4 in the presence of tZr (difference density in ligand binding pocket); type: physicochemical; conditions: no difference density for the ribose portion of tZr in the crystal complex
Excerpt: Protein Expression and Purification. A synthetic gene comprising the sensor domain of AHK4 (residues 126-395, numbering in accordance with the short splice-variant of AHK4) was codon-optimised for expression in E. coli (Geneart, Regensburg, Germany). The Ncol/Notl digested synthetic fragment was inserted into a modified pET21d (Novagen) plasmid providing N-terminal 7xHis and Strep II affinity tags and expressed as a SUMO fusion protein in E. coli Origami (DE3) cells (Novagen). Cells grown to an OD600nm of 0.8 were induced with 0.3 mM isopropyl-β-D-thiogalactopyranoside in Terrific Broth at 16° C. for 22 h. Cells were collected by centrifugation at 4,500 xg for 30 min, washed in PBS buffer, incubated with 100 mg lysozyme for 1 h at room temperature and snap-frozen in liquid nitrogen. For protein purification cells were thawn in buffer A (25 mM Tris, pH 7.6, 500 mM NaCl, 15 mM Imidazole and, if applicable, 0.1 mM of the respective cytokinin), lysed by sonication, and centrifuged at 75,000 xg for 90 min. The supernatant was incubated in batch with 5 mL HIS-Select Cobalt Affinity Gel (Sigma), washed with buffer A and eluted in buffer A supplemented with 200 mM imidazole. The fusion protein was dialysed against buffer B (25 mM Tris, pH 8.0, 300 mM NaCl, 1 mM EDTA) and then loaded onto a 1 mL Strep-Tactin Superflow high capacity cartridge (IBA, Gottingen, Germany). […]

T1 sequence (Q9C5U0 24-1080 limits assumed): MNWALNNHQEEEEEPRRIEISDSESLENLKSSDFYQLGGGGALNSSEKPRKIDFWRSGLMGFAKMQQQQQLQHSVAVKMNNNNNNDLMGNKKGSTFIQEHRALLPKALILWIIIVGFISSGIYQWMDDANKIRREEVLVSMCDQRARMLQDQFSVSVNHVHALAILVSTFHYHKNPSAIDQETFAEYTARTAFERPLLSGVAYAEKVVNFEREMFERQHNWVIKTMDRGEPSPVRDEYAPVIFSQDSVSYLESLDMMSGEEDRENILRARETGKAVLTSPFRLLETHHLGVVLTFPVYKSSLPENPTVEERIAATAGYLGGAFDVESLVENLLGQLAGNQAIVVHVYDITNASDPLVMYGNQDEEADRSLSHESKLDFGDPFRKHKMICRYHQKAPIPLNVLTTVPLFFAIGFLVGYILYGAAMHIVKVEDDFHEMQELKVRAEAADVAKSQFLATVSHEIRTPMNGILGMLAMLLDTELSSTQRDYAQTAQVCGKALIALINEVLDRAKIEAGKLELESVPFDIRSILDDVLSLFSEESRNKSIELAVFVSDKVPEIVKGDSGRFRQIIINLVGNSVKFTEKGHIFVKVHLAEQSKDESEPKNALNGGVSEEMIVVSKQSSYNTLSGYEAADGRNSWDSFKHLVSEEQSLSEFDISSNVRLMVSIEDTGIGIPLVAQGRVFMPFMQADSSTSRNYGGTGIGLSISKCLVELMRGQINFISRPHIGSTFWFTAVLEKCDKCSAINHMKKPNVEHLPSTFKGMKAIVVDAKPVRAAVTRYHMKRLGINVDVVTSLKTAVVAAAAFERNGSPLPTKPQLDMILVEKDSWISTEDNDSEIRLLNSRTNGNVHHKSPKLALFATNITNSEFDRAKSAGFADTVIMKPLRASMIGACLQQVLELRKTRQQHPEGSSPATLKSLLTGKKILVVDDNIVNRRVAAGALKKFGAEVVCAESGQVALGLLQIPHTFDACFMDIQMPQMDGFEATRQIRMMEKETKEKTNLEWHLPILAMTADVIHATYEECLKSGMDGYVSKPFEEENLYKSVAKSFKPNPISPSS

C/C(=C\CNc1ncnc2c1ncn2[C@@H]1O[C@H](CO)[C@@H](O)[C@H]1O)CO (relative stereo) [tZr, trans-zeatin riboside]
binding affinity to AHK4 [1]: high affinity
stability of ligand during purification with AHK4 [2]: underwent hydrolysis during purification
